Test results taken from US11413269B2, “Compositions for improved NRF2 activation and methods of their use” (PATHWAYS BIOSCIENCE, LLC, priority 2015, dated 2022).

Test system: Nrf2
Assay: ARE-driven luciferase promoter/reporter assay in stably transfected cell lines
Format: cell-based, human
Details: low concentrations
Procedure: Briefly, the stably transfected cells of types HepG2 (human liver), AREc32 (human breast), MCF7 (human breast), A549 (human lung), 293T (human kidney), and A172 (human brain) were seeded at low density in 24-well plates and incubated at 37° C. with 10% CO2. […] After an additional 18 h of incubation, the cells were lysed in their wells with 100 μl of a lysing buffer that contains 3.5 mM sodium pyrophosphate to stabilize light output by luciferase. A 20 μl aliquot of cell lysate was added to a small test tube, placed in a BD Monolight 3010 luminometer for background luminescence, and then 50 μl of 1 mM luciferin was injected into the tube. Relative Light Units integrated for 10 sec were measured for each sample.

O=c1cc(-c2ccc(O)c(O)c2)oc2cc(O)cc(O)c12 [Luteolin, luteolin]
synergy with combinations of Rosemary extracts and Ginger extracts to activate Nrf2: synergized
